Holding throughout (test): biochemical
Parameters in all cases: DiscoveRx KINOMEscan active site-directed competition binding; percent of control kinase bound to immobilised ligand

The target in experiment [1] is AKT3 (Homo sapiens, UniProt Q9Y243).
For experiment [2], the target named is T1, AMPK-alpha2 (Homo sapiens, UniProt P54646).
T1 construct: gene PRKAA2

The target of experiment [3] is T2, EPHA8 (Homo sapiens, UniProt P29322).
T2 sequence (P29322 1-1005): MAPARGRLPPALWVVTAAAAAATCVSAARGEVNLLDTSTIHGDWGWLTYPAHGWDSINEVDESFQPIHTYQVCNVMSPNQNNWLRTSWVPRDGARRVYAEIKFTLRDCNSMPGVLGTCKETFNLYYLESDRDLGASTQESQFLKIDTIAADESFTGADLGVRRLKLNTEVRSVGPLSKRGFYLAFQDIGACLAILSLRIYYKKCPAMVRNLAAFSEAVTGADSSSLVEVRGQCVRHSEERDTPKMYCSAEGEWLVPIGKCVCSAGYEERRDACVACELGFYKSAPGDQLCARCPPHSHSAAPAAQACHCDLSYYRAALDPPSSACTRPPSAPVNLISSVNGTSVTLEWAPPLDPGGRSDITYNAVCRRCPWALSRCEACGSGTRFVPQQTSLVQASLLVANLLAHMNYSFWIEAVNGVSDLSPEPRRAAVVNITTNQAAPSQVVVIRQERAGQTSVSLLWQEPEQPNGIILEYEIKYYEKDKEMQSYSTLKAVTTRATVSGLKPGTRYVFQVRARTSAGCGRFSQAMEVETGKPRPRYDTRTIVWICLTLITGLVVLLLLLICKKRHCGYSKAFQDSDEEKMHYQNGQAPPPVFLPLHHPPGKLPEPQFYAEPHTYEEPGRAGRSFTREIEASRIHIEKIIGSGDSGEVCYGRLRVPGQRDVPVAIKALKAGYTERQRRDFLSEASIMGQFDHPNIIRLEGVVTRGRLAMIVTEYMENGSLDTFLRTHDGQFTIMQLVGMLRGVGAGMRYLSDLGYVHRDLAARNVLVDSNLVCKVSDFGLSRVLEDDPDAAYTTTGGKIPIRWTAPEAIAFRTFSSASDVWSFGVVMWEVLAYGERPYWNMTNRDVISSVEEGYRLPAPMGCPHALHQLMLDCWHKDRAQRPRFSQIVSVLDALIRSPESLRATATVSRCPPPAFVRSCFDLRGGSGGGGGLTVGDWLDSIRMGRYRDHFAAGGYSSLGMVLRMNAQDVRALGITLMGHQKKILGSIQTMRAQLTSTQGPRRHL

The target of experiment [4] is MYLK (Homo sapiens, UniProt Q15746).
The target in experiment [5] is PHKG1 (Homo sapiens, UniProt Q16816).
Experiment [6] deals with PIK3CA(E545A) (Homo sapiens, UniProt P42336, E545A).
Experiment [7] addresses T3, PIK4CB (Homo sapiens, UniProt Q9UBF8).
T3 construct: gene PI4KB

Experiment [8] concerns the target PLK3 (Homo sapiens, UniProt Q9H4B4).
Experiment [9] deals with T4, ULK2 (Homo sapiens, UniProt Q8IYT8).
T4 sequence (Q8IYT8 1-1036): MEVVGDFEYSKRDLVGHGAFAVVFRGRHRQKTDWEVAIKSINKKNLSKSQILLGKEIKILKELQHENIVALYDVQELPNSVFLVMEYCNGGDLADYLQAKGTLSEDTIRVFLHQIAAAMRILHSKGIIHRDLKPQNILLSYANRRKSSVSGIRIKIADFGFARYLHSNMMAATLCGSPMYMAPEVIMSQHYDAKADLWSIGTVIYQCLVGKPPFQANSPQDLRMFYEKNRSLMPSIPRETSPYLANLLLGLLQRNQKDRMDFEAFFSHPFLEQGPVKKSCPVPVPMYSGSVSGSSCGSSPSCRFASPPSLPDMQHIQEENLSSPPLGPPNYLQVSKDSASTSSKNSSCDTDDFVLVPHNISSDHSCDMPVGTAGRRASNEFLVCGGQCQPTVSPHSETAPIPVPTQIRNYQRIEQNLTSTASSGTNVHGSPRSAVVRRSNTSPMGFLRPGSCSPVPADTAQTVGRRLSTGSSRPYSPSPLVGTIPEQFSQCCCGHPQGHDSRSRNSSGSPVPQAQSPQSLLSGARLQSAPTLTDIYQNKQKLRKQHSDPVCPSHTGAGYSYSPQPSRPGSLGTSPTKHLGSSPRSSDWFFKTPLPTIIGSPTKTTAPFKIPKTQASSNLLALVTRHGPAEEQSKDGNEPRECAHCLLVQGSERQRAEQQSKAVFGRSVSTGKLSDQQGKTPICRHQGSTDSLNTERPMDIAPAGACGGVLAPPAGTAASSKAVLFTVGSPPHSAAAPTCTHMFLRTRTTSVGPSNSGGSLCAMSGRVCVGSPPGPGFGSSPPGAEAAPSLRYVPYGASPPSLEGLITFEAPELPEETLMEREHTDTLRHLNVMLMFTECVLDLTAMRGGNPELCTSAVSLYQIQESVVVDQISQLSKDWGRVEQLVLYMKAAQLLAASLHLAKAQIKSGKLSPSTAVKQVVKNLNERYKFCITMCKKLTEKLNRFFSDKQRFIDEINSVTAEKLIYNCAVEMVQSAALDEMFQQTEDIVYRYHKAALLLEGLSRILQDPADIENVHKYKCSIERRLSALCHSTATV

Setting [10] is: read-out: Niraparib (MK-4827) / %Ctrl @ 10000nM.
Setting [11] is: read-out: Olaparib / %Ctrl @ 10000nM.
[12] abbreviates: read-out: Rucaparib / %Ctrl @ 10000nM, binding competition, % of control.
Setting [13] is: read-out: Talazoparib (BMN 673) / %Ctrl @ 10000nM.

Where two headings read alike, the source gives them in different places.

Chain of PLK3 (Q9H4B4 whole entry): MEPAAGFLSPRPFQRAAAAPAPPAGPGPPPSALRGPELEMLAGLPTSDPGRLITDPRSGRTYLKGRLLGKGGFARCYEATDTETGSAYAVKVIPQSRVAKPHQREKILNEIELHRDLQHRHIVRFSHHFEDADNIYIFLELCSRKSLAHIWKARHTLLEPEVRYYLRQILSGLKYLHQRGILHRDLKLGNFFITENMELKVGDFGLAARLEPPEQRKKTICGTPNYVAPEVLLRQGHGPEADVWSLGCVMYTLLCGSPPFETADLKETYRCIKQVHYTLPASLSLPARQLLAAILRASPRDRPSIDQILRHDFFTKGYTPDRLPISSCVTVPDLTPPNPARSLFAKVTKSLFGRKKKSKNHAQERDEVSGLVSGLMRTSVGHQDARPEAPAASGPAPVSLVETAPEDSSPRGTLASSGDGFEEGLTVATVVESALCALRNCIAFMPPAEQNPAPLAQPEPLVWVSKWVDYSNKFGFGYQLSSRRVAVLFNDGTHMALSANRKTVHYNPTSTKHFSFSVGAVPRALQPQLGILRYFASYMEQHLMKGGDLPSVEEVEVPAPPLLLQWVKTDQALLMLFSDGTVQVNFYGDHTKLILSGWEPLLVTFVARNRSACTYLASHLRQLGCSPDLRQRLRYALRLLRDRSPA
T1 sequence (P54646 whole entry): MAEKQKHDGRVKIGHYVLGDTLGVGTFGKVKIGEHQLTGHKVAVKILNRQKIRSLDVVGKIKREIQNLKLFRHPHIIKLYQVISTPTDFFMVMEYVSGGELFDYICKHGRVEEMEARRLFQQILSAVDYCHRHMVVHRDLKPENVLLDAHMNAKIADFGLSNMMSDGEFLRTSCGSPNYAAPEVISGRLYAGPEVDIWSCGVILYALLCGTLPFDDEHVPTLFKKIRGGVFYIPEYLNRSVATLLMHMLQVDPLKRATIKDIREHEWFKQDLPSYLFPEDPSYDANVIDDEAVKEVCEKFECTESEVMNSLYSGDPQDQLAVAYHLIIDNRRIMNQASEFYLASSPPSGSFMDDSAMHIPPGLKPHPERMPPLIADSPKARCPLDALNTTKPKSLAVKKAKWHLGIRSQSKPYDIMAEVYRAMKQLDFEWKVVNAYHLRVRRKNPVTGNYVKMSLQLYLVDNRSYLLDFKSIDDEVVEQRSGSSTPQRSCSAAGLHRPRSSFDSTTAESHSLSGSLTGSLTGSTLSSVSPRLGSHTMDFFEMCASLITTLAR
Chain of MYLK (Q15746 whole entry): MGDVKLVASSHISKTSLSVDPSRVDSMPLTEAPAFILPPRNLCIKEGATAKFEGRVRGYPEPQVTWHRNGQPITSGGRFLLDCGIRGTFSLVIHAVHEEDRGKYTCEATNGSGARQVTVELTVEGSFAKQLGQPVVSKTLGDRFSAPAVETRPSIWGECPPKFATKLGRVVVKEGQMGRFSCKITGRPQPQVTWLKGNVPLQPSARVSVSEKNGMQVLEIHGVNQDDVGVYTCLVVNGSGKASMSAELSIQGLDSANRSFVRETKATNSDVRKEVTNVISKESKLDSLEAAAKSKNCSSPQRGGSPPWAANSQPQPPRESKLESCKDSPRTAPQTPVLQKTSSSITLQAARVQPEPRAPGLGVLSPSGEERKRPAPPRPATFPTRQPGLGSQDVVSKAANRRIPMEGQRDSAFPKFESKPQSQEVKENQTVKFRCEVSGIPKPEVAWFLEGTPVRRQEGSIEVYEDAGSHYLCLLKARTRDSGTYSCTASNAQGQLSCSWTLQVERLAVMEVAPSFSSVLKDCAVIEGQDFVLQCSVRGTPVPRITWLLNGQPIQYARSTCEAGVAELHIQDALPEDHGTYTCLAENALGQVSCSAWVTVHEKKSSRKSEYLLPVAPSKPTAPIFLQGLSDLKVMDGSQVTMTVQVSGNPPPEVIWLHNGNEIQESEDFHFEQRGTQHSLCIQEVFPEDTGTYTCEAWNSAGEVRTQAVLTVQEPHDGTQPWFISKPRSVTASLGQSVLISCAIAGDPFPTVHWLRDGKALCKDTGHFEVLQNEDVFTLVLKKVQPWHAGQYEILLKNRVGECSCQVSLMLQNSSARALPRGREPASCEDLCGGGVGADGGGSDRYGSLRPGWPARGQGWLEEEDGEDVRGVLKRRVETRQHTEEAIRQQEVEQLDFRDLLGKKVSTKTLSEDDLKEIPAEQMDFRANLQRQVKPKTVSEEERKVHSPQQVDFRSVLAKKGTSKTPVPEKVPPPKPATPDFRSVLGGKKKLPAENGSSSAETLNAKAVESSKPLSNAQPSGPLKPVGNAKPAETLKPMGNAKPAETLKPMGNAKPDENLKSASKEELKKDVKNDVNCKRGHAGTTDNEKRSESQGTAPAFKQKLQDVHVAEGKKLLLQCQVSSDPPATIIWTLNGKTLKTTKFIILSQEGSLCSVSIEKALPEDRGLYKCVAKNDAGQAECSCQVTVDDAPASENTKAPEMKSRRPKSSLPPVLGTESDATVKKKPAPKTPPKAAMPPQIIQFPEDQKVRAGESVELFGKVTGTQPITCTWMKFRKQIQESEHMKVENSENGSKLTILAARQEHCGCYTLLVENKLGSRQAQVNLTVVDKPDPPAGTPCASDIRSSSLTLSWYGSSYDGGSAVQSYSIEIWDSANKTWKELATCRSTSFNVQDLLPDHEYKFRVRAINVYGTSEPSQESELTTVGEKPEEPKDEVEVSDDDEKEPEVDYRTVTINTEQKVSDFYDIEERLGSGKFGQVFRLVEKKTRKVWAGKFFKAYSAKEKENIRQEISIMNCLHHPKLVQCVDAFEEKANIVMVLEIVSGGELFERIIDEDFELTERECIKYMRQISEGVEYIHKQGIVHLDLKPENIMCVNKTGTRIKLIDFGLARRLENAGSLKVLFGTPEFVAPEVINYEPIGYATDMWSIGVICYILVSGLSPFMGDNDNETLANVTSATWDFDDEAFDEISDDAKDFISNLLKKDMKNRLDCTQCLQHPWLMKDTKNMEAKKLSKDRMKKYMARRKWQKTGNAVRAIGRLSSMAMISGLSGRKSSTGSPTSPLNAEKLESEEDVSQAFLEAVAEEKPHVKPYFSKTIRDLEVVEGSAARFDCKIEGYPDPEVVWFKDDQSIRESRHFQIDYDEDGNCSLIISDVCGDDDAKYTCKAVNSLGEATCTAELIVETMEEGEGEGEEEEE
T3 sequence (Q9UBF8 whole entry): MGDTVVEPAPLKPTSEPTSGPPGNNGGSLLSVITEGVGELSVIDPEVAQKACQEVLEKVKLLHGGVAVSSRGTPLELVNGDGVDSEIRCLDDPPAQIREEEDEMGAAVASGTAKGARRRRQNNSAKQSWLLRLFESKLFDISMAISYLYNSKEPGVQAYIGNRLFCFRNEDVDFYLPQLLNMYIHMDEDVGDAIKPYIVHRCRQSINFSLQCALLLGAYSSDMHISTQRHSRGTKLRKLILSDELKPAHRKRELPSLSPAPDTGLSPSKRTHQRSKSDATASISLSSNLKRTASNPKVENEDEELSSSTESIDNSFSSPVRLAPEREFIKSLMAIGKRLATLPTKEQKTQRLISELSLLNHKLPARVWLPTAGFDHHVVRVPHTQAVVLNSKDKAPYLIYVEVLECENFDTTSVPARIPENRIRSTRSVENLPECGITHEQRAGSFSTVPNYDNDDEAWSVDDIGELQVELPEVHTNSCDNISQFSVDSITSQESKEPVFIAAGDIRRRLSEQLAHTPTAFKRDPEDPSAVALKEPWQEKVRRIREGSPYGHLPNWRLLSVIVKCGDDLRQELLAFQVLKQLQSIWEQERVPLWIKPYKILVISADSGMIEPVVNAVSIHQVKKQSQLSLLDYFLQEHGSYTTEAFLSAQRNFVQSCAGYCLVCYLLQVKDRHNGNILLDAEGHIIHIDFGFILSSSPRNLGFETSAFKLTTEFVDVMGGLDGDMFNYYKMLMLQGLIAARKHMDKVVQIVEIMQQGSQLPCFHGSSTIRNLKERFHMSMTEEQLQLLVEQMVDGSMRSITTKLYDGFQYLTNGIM
Chain of AKT3 (Q9Y243 whole entry): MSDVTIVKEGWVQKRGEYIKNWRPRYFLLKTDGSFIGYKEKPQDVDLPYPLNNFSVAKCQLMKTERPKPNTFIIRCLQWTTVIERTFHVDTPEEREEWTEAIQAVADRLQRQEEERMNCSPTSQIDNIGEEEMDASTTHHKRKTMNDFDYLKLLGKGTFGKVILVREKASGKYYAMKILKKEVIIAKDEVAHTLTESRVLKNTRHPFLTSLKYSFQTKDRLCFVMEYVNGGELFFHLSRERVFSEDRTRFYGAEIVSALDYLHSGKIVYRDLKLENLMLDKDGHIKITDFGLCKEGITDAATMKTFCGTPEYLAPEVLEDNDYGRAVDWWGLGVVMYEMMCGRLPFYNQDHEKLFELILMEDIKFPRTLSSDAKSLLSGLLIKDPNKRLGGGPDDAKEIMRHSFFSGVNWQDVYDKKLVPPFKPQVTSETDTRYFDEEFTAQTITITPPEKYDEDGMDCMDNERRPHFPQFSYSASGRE
Chain of PHKG1 (Q16816 whole entry): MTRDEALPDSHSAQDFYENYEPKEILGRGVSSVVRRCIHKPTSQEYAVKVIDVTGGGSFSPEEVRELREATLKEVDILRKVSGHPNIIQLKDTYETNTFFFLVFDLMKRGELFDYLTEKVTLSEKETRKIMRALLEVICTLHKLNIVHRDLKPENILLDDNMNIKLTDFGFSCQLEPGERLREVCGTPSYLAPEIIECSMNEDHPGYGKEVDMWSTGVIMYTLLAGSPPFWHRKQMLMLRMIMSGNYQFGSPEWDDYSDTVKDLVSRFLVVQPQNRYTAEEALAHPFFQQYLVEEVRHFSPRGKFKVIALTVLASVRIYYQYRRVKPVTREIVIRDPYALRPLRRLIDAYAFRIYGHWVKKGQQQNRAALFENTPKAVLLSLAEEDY

Turning to `NC(=O)c1cccc2cn(-c3ccc([C@@H]4CCCNC4)cc3)nc12` [Niraparib], the percent of control binding at 10 µM came out at 97% in experiment [1] (setting [10]); 89% in experiment [2] (setting [10]); 80% in experiment [3] (setting [10]); 73% in experiment [4] (setting [10]); 100% in [5] (setting [10]); 98% in experiment [6] (setting [10]). Also, the figures for the percent of control binding at 10 µM in experiment [7] (setting [10]), in experiment [8] (setting [10]) and in experiment [9] (setting [10]) were 94%, 85% and 93%, respectively.

Turning to `O=C(c1cc(Cc2n[nH]c(=O)c3ccccc23)ccc1F)N1CCN(C(=O)C2CC2)CC1` [Olaparib], the percent of control binding at 10 µM in [1] (setting [11]) was found to be 100%; in experiment [2] (setting [11]), 93%; in experiment [3] (setting [11]), 98%; in experiment [4] (setting [11]), 75%; in [5] (setting [11]), 100%; in [6] (setting [11]) it was 90%. In addition, the percent of control binding at 10 µM came to 94% in [7] (setting [11]), 98% in experiment [8] (setting [11]) and 85% in experiment [9] (setting [11]).

`CNCc1ccc(-c2[nH]c3cc(F)cc4c3c2CCNC4=O)cc1` [Rucaparib]: the percent of control binding at 10 µM in experiment [1] (setting [12]) is 100%; in experiment [2] (setting [12]), 87%; in [3] (setting [12]), 100%; in experiment [4] (setting [12]), 34%; in experiment [5] (setting [12]), 87%; in experiment [6] (setting [12]), 85%. Moreover, the values for the percent of control binding at 10 µM in experiment [7] (setting [12]), in [8] (setting [12]) and in [9] (setting [12]) were 78%, 60% and 74%, respectively.

As for `Cn1ncnc1[C@H]1c2n[nH]c(=O)c3cc(F)cc(c23)N[C@@H]1c1ccc(F)cc1` [Talazoparib], the percent of control binding at 10 µM was 88% in [1] (setting [13]); 94% in [2] (setting [13]); 96% in experiment [3] (setting [13]); 77% in experiment [4] (setting [13]); 90% in experiment [5] (setting [13]); 73% in experiment [6] (setting [13]). Also, the percent of control binding at 10 µM in experiment [7] (setting [13]) was 81%; in experiment [8] (setting [13]) it was 90%; in experiment [9] (setting [13]), 100%.
